Results taken from ChEMBL document CHEMBL1201862, “PubChem BioAssay data set” (2004).
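Step 1: Grow cells in 96-well plates. Step 2: Expose to compound for 48 hours at 5 concentrations. Step 3: Interpolate endpoints linearly; if unreached, use highest concentration. GI50 is the concentration that inhibits growth by half.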 The source made the active and inactive calls. Cut-off read from the data, not from the text of the source: active = GI50 up to about 1.1 µM and inactive = higher.

Legend:
Assay in all cases: inhibition of tumour cell growth, NCI panel, 48 h
786-0 = test system: 786-0
EKVX = test system: EKVX
HCT-116 = test system: HCT-116
HOP-62 = test system: HOP-62
HOP-92 = test system: HOP-92
HT-29 = test system: HT-29
K562 = test system: K562
KM12 = test system: KM12
LOX IMVI = test system: LOX IMVI
MCF7 = test system: MCF7
MDA-N = test system: MDA-N
OVCAR-3 = test system: OVCAR-3
OVCAR-5 = test system: OVCAR-5
PC-3 = test system: PC-3
SF-539 = test system: SF-539
SK-MEL-28 = test system: SK-MEL-28
SW-620 = test system: SW-620
T47D = test system: T47D
TK-10 = test system: TK-10
UO-31 = test system: UO-31

| Compound | GI50 (786-0) | GI50 (EKVX) | GI50 (HCT-116) | GI50 (HOP-62) | GI50 (HOP-92) | GI50 (HT-29) | GI50 (K562) | GI50 (KM12) | GI50 (LOX IMVI) | GI50 (MCF7) | GI50 (MDA-N) | GI50 (OVCAR-3) | GI50 (OVCAR-5) | GI50 (PC-3) | GI50 (SF-539) | GI50 (SK-MEL-28) | GI50 (SW-620) | GI50 (T47D) | GI50 (TK-10) | GI50 (UO-31) |
| --- | --- | --- | --- | --- | --- | --- | --- | --- | --- | --- | --- | --- | --- | --- | --- | --- | --- | --- | --- | --- |
| O=C(CCc1ccc(O)c(O)c1)NCCc1cc(O)c(O)c(O)c1 | 18.6 µM (inactive) | 22.9 µM (inactive) | 18.6 µM (inactive) | 45.7 µM (inactive) | > 100 µM (inactive) | 17.9 µM (inactive) | 18.3 µM (inactive) | 25.4 µM (inactive) | 17.7 µM (inactive) | 8.93 µM (inactive) | 16.9 µM (inactive) | 19.8 µM (inactive) | 61.2 µM (inactive) | > 100 µM (inactive) | > 100 µM (inactive) | > 100 µM (inactive) | 18.8 µM (inactive) | 70.8 µM (inactive) | > 100 µM (inactive) | 44.6 µM (inactive) |
| CC1(C)CC(Nc2ccc(Nc3ccccc3)cc2)CC(C)(C)N1 | 21.1 µM (inactive) | 34.2 µM (inactive) | 35.6 µM (inactive) | 50.2 µM (inactive) | 12 µM (inactive) | 21.3 µM (inactive) | 13.2 µM (inactive) | 44.1 µM (inactive) | 24.6 µM (inactive) | 16.7 µM (inactive) | 17 µM (inactive) | 18.4 µM (inactive) | 36.2 µM (inactive) | 11.5 µM (inactive) | 15.8 µM (inactive) | 18.2 µM (inactive) | 21.8 µM (inactive) | 16 µM (inactive) | 32.8 µM (inactive) | 9.48 µM (inactive) |
| Cc1nc(O)c(O)c(CN2CCCCC2)n1 | > 100 µM (inactive) | > 100 µM (inactive) | > 100 µM (inactive) | > 100 µM (inactive) | > 100 µM (inactive) | > 100 µM (inactive) | > 100 µM (inactive) | > 100 µM (inactive) | > 100 µM (inactive) | > 100 µM (inactive) | > 100 µM (inactive) | > 100 µM (inactive) | > 100 µM (inactive) | > 100 µM (inactive) | > 100 µM (inactive) | > 100 µM (inactive) | > 100 µM (inactive) | > 100 µM (inactive) | > 100 µM (inactive) | > 100 µM (inactive) |
| O=C(NNC(=S)Nc1ccc(Cl)cc1)C12CC3CC(CC(C3)C1)C2 | 5.15 µM (inactive) | 5.73 µM (inactive) | 2.57 µM (inactive) | 11.2 µM (inactive) | 11.3 µM (inactive) | 3.78 µM (inactive) | 4.24 µM (inactive) | 9.84 µM (inactive) | 2.53 µM (inactive) | 3.37 µM (inactive) | 10.2 µM (inactive) | 2.45 µM (inactive) | 20.3 µM (inactive) | 3.19 µM (inactive) | 3.93 µM (inactive) | 14.8 µM (inactive) | 3.76 µM (inactive) | 4.59 µM (inactive) | 16.5 µM (inactive) | 1.38 µM (inactive) |
| Cc1cccc(C[C@@]2(SCc3ccccc3)C(C)(C)[C@@H]3CC[C@@]2(C)C3)n1 | 17.6 µM (inactive) | 17.6 µM (inactive) | 14.7 µM (inactive) | 23.4 µM (inactive) | 14.3 µM (inactive) | 15 µM (inactive) | 13.1 µM (inactive) | 16.4 µM (inactive) | 16.6 µM (inactive) | 13.9 µM (inactive) | 24.5 µM (inactive) | 15.6 µM (inactive) | 18 µM (inactive) | 20 µM (inactive) | 23.3 µM (inactive) | 19.5 µM (inactive) | 15 µM (inactive) | 7.26 µM (inactive) | 17.6 µM (inactive) | 19.4 µM (inactive) |
| CC(=O)CC1CCC(=O)/C=C/C(=O)OC(CC(C)=O)CCC(=O)/C=C/C(=O)O1 (stereo not given) | 5.15 µM (inactive) | 8.02 µM (inactive) | 4.1 µM (inactive) | 23.3 µM (inactive) | 3.78 µM (inactive) | 11.2 µM (inactive) | 3.25 µM (inactive) | 20.8 µM (inactive) | 18.6 µM (inactive) | 9.25 µM (inactive) | 9.53 µM (inactive) | 6.79 µM (inactive) | 17.6 µM (inactive) | 15 µM (inactive) | 19.3 µM (inactive) | 7.33 µM (inactive) | 1.67 µM (inactive) | 2.09 µM (inactive) | 7.35 µM (inactive) | 12.6 µM (inactive) |
| NCCCc1c(-c2ccccc2)[nH]c(N)nc1=O | > 100 µM (inactive) | > 100 µM (inactive) | > 100 µM (inactive) | > 100 µM (inactive) | > 100 µM (inactive) | > 100 µM (inactive) | > 100 µM (inactive) | > 100 µM (inactive) | > 100 µM (inactive) | > 100 µM (inactive) | > 100 µM (inactive) | > 100 µM (inactive) | > 100 µM (inactive) | > 100 µM (inactive) | > 100 µM (inactive) | > 100 µM (inactive) | > 100 µM (inactive) | > 100 µM (inactive) | > 100 µM (inactive) | > 100 µM (inactive) |
| CC(C)(O)CO/N=C1\C(=C2\C(=O)Nc3ccccc32)Nc2ccccc21 | 10.7 µM (inactive) | 1.65 µM (inactive) | 6.28 µM (inactive) | 2.1 µM (inactive) | 3.48 µM (inactive) | 1.75 µM (inactive) | 5.86 µM (inactive) | < 0.01 µM (active) | 0.583 µM (active) | 1.39 µM (inactive) | 12.2 µM (inactive) | 1.32 µM (inactive) | 2.61 µM (inactive) | 0.883 µM (active) | 2.71 µM (inactive) | 2.38 µM (inactive) | 0.811 µM (active) | 0.631 µM (active) | 0.601 µM (active) | 0.348 µM (active) |
| CC(Nc1ccc(Cl)c(Cl)c1)c1ccncc1 (stereo not given) | 29 µM (inactive) | 39.9 µM (inactive) | 16.6 µM (inactive) | 20.9 µM (inactive) | 18.9 µM (inactive) | 23.7 µM (inactive) | 45.3 µM (inactive) | 14.9 µM (inactive) | 18.4 µM (inactive) | 22.4 µM (inactive) | 24.6 µM (inactive) | 26.8 µM (inactive) | > 10 µM (inactive) | 19.4 µM (inactive) | 30.8 µM (inactive) | 35.7 µM (inactive) | 20.7 µM (inactive) | 51.6 µM (inactive) | 31.9 µM (inactive) | 11.6 µM (inactive) |
| C/C(=N/NC(N)=S)c1ccc[nH]1 | > 100 µM (inactive) | > 100 µM (inactive) | > 100 µM (inactive) | > 100 µM (inactive) | > 100 µM (inactive) | > 100 µM (inactive) | 37.9 µM (inactive) | > 100 µM (inactive) | > 100 µM (inactive) | > 100 µM (inactive) | > 100 µM (inactive) | > 100 µM (inactive) | > 100 µM (inactive) | > 100 µM (inactive) | > 100 µM (inactive) | > 100 µM (inactive) | > 100 µM (inactive) | 84.3 µM (inactive) | > 100 µM (inactive) | > 100 µM (inactive) |
| C[N+](C)(C)c1nc(N)nc2c1ncn2C1OC(CO)C(O)C1O (stereo not given) | > 100 µM (inactive) | > 100 µM (inactive) | > 100 µM (inactive) | > 100 µM (inactive) | > 100 µM (inactive) | > 100 µM (inactive) | > 100 µM (inactive) | > 100 µM (inactive) | > 100 µM (inactive) | > 100 µM (inactive) | > 100 µM (inactive) | > 100 µM (inactive) | > 100 µM (inactive) | > 100 µM (inactive) | > 100 µM (inactive) | > 100 µM (inactive) | > 100 µM (inactive) | > 100 µM (inactive) | > 100 µM (inactive) | > 100 µM (inactive) |
| Cc1cc2c(c(C)c1O)C(C)(C)CN2C(=O)C(C)(C)C | > 100 µM (inactive) | > 100 µM (inactive) | 84.7 µM (inactive) | > 100 µM (inactive) | 20 µM (inactive) | 57 µM (inactive) | 41.5 µM (inactive) | > 100 µM (inactive) | > 100 µM (inactive) | > 100 µM (inactive) | > 100 µM (inactive) | 14.4 µM (inactive) | > 100 µM (inactive) | 46.3 µM (inactive) | > 100 µM (inactive) | > 100 µM (inactive) | > 100 µM (inactive) | 56.5 µM (inactive) | > 100 µM (inactive) | 74.5 µM (inactive) |
| CCCCCC#CCOC(=O)C(=[N+]=[N-])P(=O)(c1ccccc1)c1ccccc1 | > 10 µM (inactive) | > 10 µM (inactive) | 8.26 µM (inactive) | > 10 µM (inactive) | > 10 µM (inactive) | > 10 µM (inactive) | > 10 µM (inactive) | > 10 µM (inactive) | > 10 µM (inactive) | > 10 µM (inactive) | > 10 µM (inactive) | > 10 µM (inactive) | > 10 µM (inactive) | > 10 µM (inactive) | > 10 µM (inactive) | > 10 µM (inactive) | > 10 µM (inactive) | > 10 µM (inactive) | > 10 µM (inactive) | > 10 µM (inactive) |
| Nc1c(S(=O)(=O)O)cc(Nc2cccc(S(N)(=O)=O)c2)c2c1C(=O)c1ccccc1C2=O | 62.5 µM (inactive) | 57 µM (inactive) | > 100 µM (inactive) | 23.4 µM (inactive) | > 100 µM (inactive) | 29.6 µM (inactive) | > 100 µM (inactive) | 71.6 µM (inactive) | 43.8 µM (inactive) | > 100 µM (inactive) | 20.3 µM (inactive) | 83.9 µM (inactive) | > 100 µM (inactive) | > 100 µM (inactive) | > 100 µM (inactive) | > 100 µM (inactive) | 74.5 µM (inactive) | > 100 µM (inactive) | > 100 µM (inactive) | 97.3 µM (inactive) |
